Measured values taken from publication PMC3347614 (Acta Naturae, 2011).
Entries after “also recorded” stand apart in the source; their conditions may differ.

Molecular target: T1, DNA gyrase (Escherichia coli, UniProt P0AES4+P0AES6)
T1 construct: His6 (N); made in house; host or cells: Escherichia coli Rosetta (DE3)
Experiment: Inhibition of DNA gyrase supercoiling of relaxed plasmid pBR322 (agarose gel electrophoresis)
Format: biochemical, E. coli
Details: for Inhibitory activity towards DNA gyrase, in words: qualitative statement; for Activity towards DNA gyrase compared with that of levofloxacin: relative to levofloxacin, in words
Experimental: The reaction mixture (30 µl) contained 35 mM Tris-HCl (pH 7.5), 24 mM KCl, 4 mM MgCl 2 , 1.4 mM ATP, 5 mM DTT, 1.8 mM spermidine, and 0.1 mg/ml of a bovine serum albumin. A mixture of DNA gyrase A and B subunits (0.4 µg) and 0.25–0.5 µg of the substrate (relaxed plasmid pBR322) were added to the reaction probe. The reaction was performed for 60 min at 25°C (for multiple samples, 96-well plates were used). After the reaction was completed, the samples were extracted with an equal volume of chloroform (30 µl). Then, 7 µl of the mixture containing […], 25% of glycerol, and 0.25% of bromphenol blue were added to the aqueous phase. The mixture was applied on a 1.2% agarose gel in TAE buffer (40 mM Tris-acetate, pH 8.0, 2 mM EDTA) and analyzed with electrophoresis (50 V, 2 h). The products were visualized under UV-light after staining with ethidium bromide. The activity of the enzyme (%) was determined from the intensity of the band corresponding to the super-coiled form of plasmid pBR322 and estimated using the Total Lab v2.01 software.
An equal volume of DMSO was added to the control. The reaction was started upon addition of DNA gyrase (0.4 µg) and relaxed plasmid pBR322 (0.25–0.5 µg), which was used as a substrate, and performed as described above. Calculations were made using the Total Lab v2.01 program.

T1 sequence (P0AES4 whole entry, one chain of several): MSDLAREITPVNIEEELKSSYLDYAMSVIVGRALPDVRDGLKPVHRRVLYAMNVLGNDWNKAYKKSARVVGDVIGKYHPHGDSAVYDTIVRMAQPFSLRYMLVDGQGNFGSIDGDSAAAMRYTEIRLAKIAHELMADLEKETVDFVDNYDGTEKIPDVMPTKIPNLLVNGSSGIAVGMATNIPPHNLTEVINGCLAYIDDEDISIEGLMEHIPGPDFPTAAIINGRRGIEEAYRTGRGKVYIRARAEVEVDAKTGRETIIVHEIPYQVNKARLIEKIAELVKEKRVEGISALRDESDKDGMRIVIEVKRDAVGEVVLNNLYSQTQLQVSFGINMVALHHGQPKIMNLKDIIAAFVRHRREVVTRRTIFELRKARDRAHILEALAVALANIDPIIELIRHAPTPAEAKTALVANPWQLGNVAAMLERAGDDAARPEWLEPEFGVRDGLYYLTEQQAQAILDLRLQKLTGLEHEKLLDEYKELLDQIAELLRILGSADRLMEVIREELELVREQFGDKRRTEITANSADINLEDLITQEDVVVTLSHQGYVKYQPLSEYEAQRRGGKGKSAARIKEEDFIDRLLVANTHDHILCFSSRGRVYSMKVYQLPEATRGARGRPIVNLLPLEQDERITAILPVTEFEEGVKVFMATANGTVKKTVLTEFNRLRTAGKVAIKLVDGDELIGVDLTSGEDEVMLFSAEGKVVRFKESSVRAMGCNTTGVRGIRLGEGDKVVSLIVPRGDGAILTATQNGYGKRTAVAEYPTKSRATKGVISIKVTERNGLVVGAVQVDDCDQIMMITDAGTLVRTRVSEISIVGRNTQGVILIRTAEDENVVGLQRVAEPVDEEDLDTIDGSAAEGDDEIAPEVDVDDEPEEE

Row | SMILES | I50 (inhibition activity towards DNA gyrase) (relaxed pBR322, 60 min, 25°C) | other results
1 | CC1COc2c(ccc(F)c2F)N1 (racemic) [IOS-RS, (R,S)-7,8-Difluoro-3-methyl-2,3-dihydro-4H-benzo[b][1, 4]-oxazine] |  | Inhibitory activity towards DNA gyrase, in words: no significant activity
2 | CCOC(=O)c1cn2c3c(c(F)c(F)cc3c1=O)OC(c1cccnc1)=N2 [EV-313-D] | EV-313-D Inactive | 
3 | O=C(O)c1cn2c3c(c(N4CCCC4)c(F)cc3c1=O)OC(c1cccc([N+](=O)[O-])c1)=N2 [EV-452-D] | EV-452-D Inactive | 
4 | CN1C2=Nn3cc(C(=O)O)c(=O)c4c(F)c(F)c(N5CCCC5)c(c43)N2c2cc(F)c(F)cc21 [EV-465] |  | Activity towards DNA gyrase compared with that of levofloxacin: two orders of magnitude; IC50 (relaxed pBR322, 60 min, 25°C, read-out: I50 (inhibition activity towards DNA gyrase)): > 63.4 µM
5 | O=C(O)c1cn2c3c(c(N4CCOCC4)c(F)cc3c1=O)SC(NC1CCCCC1)=N2 [EV-572] | EV-572 Inactive | 
6 | O=C(O)c1cn2c3c(c(F)c(F)cc3c1=O)NC(c1ccccc1)=N2 [EV-591] | EV-591 Inactive | 
7 | O=C(C(=C1Nc2ccccc2N1)c1nc(=O)c2cc(F)c(F)c(F)c2s1)c1ccccc1 [EV-N51-B] | EV-N51-B Inactive | 
8 | O=c1nc(Nc2ncccn2)sc2c(F)c(F)c(F)cc12 [EV-N119-2] | EV-N119-2 Inactive | 
9 | O=c1[nH]c(N/N=C/c2ccccc2O)nc2c(F)c(N3CCCC3)c(F)cc12 [EV-T143-B] | EV-T143-B Inactive | 
10 | Oc1ccccc1/C=N\Nc1nc(-c2ccccc2)nc2cccc(F)c12 [EV-T150-C] | EV-T150-C Inactive | 
11 | O=c1c2cc(F)c(F)cc2nc(/C=C/c2ccccc2O)n1-c1ccccc1 [EV-T156] | EV-T156 Inactive | 
12 | CCSc1nc(Nc2ccc(F)c(F)c2)c2cc(F)c(F)c(F)c2n1 [EV-X58-A] | EV-X58-A Inactive | 
13 | CC(C)(C)c1cc(-n2c(-c3ccccc3)nc3cc(F)c(F)cc3c2=O)no1 [EV-X149] | EV-X149 Inactive | 
14 | CCOC(=O)c1cn2c3c(c(F)c(F)cc3c1=O)OC[C@@H]2C [IOS-E, Ethyl ester of (3S)-(-)-9,10-difluoro-3-methyl-7-oxo-2,3-dihydro-7H-pyrido[1,2,3-d,e][1, 4]-benzoxazine-6-carboxylic acid] |  | Inhibitory activity towards DNA gyrase, in words: no significant activity; also recorded: practically inactive
15 | C[C@H]1COc2c(F)c(F)cc3c(=O)c(C(=O)O)cn1c23 [IOS-K, (3S)-(-)-Difluoro-3-methyl-7-oxo-2,3-dihydro-7H-pyrido[1,2,3-d,e][1, 4]-benzoxazine-6-carboxylic acid] |  | Inhibitory activity towards DNA gyrase, in words: significant inhibitory activity; Activity towards DNA gyrase compared with that of levofloxacin: lower by an order of magnitude
16 | CCn1cc(C(=O)O)c(=O)c2cc(F)c(N3CCNCC3)cc21 [IOS-NORFL_01, norfloxacin, reference compound] |  | Inhibitory activity towards DNA gyrase, in words: poor inhibitor
17 | C[C@H]1COc2c(ccc(F)c2F)N1 [IOS-S, (3S)-2,3-Dihydro-3-methyl-7,8-difluoro-1,4-benzoxazine] |  | Inhibitory activity towards DNA gyrase, in words: no significant activity
